Laboratory results published in patent publication US4886810A, “Quinoline derivatives, pharmaceutical composition and method of use” (Dainippon Pharmaceutical Co., Ltd., priority 1986, dated 1989).
In brackets after ≈: the same amount, converted by molar mass. Where two headings read alike, the source gives them in different places.

Legend:
M. bovis P-7101 = assay: microbe, parasite or virus in culture; type: cell-based; details: Mycobacterium tuberculosis variant bovis, P7101, 20 h; read-out: minimum inhibitory concentrations (MIC)
P. aeruginosa 12 = assay: microbe, parasite or virus in culture; type: cell-based
S. aureus 209P JC-1 = assay: microbe, parasite or virus in culture; type: cell-based; details: Staphylococcus aureus, 20 h, read-out: minimum inhibitory concentrations (MIC)
S. aureus No. 50774 = assay: microbe, parasite or virus in culture; type: cell-based
Flavobacterium sp P-7201 = assay: microbe, parasite or virus in culture; type: cell-based; details: P7201, 20 h, read-out: minimum inhibitory concentrations (MIC)
male mice (ddY) = assay: Acute oral toxicity in mice (Table 3); details: mouse, in vivo
[1] = tested on: Gram-positive and Gram-negative bacteria; assay: In vitro antibacterial activity, overall; type: cell-based
Experimental: The numbers in the table show minimum inhibitory concentrations (MIC) (μg/ml), calculated for free base. The minimum inhibitory concentration was determined by the twofold agar-dilution method, which was recommended by Japan Society of Chemotherapy (Chemotherapy, 29(1), (1981)), using Muller-Hinton agar. One loopful of an overnight culture of test organisms in Mueller-Hinton broth was inoculated onto 10-ml drug-containing agar layers in petri dishes. Bacterial inocula contained approximately 10^6 colonyl-forming units. Bacterial growth was observed after 20-hour incubation at 37° C. The MIC was defined as the lowest drug concentration which prevented visible bacterial growth.

S. pyogenes A 65 = assay: microbe, parasite or virus in culture; type: cell-based
B. abortus kusayanagi = assay: microbe, parasite or virus in culture; type: cell-based; details: Brucella abortus, 20 h; read-out: minimum inhibitory concentrations (MIC)
S. aureus No. 80 = assay: microbe, parasite or virus in culture; type: cell-based
E. coli P-51213 = assay: microbe, parasite or virus in culture; type: cell-based
S. pyogenes Cook = assay: microbe, parasite or virus in culture; type: cell-based
M. lacunata P-7102 = assay: microbe, parasite or virus in culture; type: cell-based
in vivo [2] = details: mouse, po
[3] = tested on: Gram-positive and Gram-negative bacteria; assay: In vivo efficacy against systemic infections, overall; details: for therapeutic effect on infections by Gram-positive and Gram-negative bacteria (in words): in vivo; for therapeutic effect compared with Compounds A and B (in words): versus Compounds A and B, systemic infections, mice
Experimental: Compounds were each dissolved in deionized water. Each of the solutions was orally administered to mice infected with each of the test organisms under the conditions shown hereinbelow, and the median effective dose (ED 50) was calculated by […]. The numerals in the table show ED50 (mg/kg) value, calculated for free base.
Mice: Male mice (ddY-S) weighing about 20 g Infection:
Twice, immediately and 6 hours after infection.
For 14 days in case of Staphylococcus aureus 50774.
For 7 days in case of other organisms.

in vivo [4] = assay: in vivo; parameters: species or system mice; details: mouse; for dose excreted at 24 h: 5 mg/kg
[5] = tested on: Pseudomonas aeruginosa 12; assay: animal or person; type: in vivo; details: for ED50: Pseudomonas aeruginosa, 12, in Mus musculus, po, 168 h, 7 days, read-out: median effective dose (ED50); for efficacy against systemic infection by P. aeruginosa 12 compared with Compound A (in words): in vivo
[6] = tested on: Streptococcus pyogenes A65; assay: animal or person; type: in vivo; details: A65, in Mus musculus, po, 168 h, 7 days, read-out: median effective dose (ED50)
[7] = tested on: Staphylococcus aureus 50774; assay: animal or person; type: in vivo; details: for ED50: Staphylococcus aureus, 50774, in Mus musculus, po, 336 h, read-out: median effective dose (ED50)
[8] = Pseudomonas aeruginosa, 12, 20 h; read-out: minimum inhibitory concentrations (MIC)
[9] = Staphylococcus aureus, NO.50774, 20 h; read-out: minimum inhibitory concentrations (MIC)
[10] = Streptococcus pyogenes, A65, 20 h; read-out: minimum inhibitory concentrations (MIC)
[11] = Staphylococcus aureus, NO.80, 20 h; read-out: minimum inhibitory concentrations (MIC)
[12] = Escherichia coli, P51213, 20 h; read-out: minimum inhibitory concentrations (MIC)
[13] = Streptococcus pyogenes, 20 h; read-out: minimum inhibitory concentrations (MIC)
[14] = 20 h; read-out: minimum inhibitory concentrations (MIC)

Row | Structure (SMILES) | MIC (M. bovis P-7101) [µg/mL] | MIC (P. aeruginosa 12; [8]) [µg/mL] | MIC (S. aureus 209P JC-1) [µg/mL] | MIC (S. aureus No. 50774; [9]) [µg/mL] | MIC (Flavobacterium sp P-7201) [µg/mL] | toxicity (in words) (male mice (ddY)) | antibacterial activity against Gram-positive and Gram-negative bacteria (in words) [1] | MIC (S. pyogenes A 65; [10]) [µg/mL] | MIC (B. abortus kusayanagi) [µg/mL] | MIC (S. aureus No. 80; [11]) [µg/mL] | MIC (E. coli P-51213; [12]) [µg/mL] | MIC (S. pyogenes Cook; [13]) [µg/mL] | MIC (M. lacunata P-7102; [14]) [µg/mL] | LD50 at 168 h (in vivo [2]) [mg/kg] | ED50 [5] [mg/kg] | ED50 [6] [mg/kg] | further results
1 | C[C@H]1CN(c2c(F)c(F)c3c(=O)c(C(=O)O)cn(C4CC4)c3c2F)C[C@H]1N (relative stereo) [Compound 2, 1-cyclopropyl-5,6,8-trifluoro-7-(cis3-amino-4-methyl-1-pyrrolidinyl)-1,4-dihydro-4-oxoquinoline-3-carboxylic acid] | 0.39 (≈ 1.02 µM) | 0.39 (≈ 1.02 µM) | 0.05 (≈ 0.131 µM) | 0.05 (≈ 0.131 µM) | 0.2 (≈ 0.524 µM) | low oral toxicity | very high antibacterial activities | 0.39 (≈ 1.02 µM) | 0.78 (≈ 2.05 µM) | 0.05 (≈ 0.131 µM) | 0.05 (≈ 0.131 µM) | 0.2 (≈ 0.524 µM) | 0.78 (≈ 2.05 µM) | > 2000 | – | – | –
2 | C[C@@H]1CN(c2c(F)c(N)c3c(=O)c(C(=O)O)cn(C4CC4)c3c2F)C[C@H]1N (relative stereo) [Compound 5, 5-amino-7-(trans-3-amino-4-methyl-1-pyrrolidinyl)-1-cyclopropyl-6,8-difluoro-1,4-dihydro-4-oxoquinoline-3-carboxylic acid] | 0.1 (≈ 0.264 µM) | 0.1 (≈ 0.264 µM) | 0.025 (≈ 0.0661 µM) | 0.0125 (≈ 0.033 µM) | 0.05 (≈ 0.132 µM) | low oral toxicity | very high antibacterial activities | 0.1 (≈ 0.264 µM) | 0.2 (≈ 0.529 µM) | 0.0125 (≈ 0.033 µM) | 0.025 (≈ 0.0661 µM) | 0.1 (≈ 0.264 µM) | 0.39 (≈ 1.03 µM) | > 2000 | – | – | –
3 | C[C@H]1CN(c2c(F)c(N)c3c(=O)c(C(=O)O)cn(C4CC4)c3c2F)C[C@H]1CN.Cl (relative stereo) [Compound 6, 5-amino-7-(cis-3-aminomethyl-4-methyl-1-pyrrolidinyl)-1-cyclopropyl-6,8-difluoro-1,4-dihydro-4-oxoquinoline-3-carboxylic acid hydrochloride] | 0.2 | 0.1 | < 0.0031 | 0.0031 | 0.025 | – | – | 0.0125 | 0.39 | 0.0031 | 0.0125 | 0.0063 | 0.2 | – | – | – | –
4 | CC1CN(c2c(F)c(F)c3c(=O)c(C(=O)O)cn(C4CC4)c3c2F)CCN1 (stereo not shown) [Compound 1, 1-cyclopropyl-5,6,8-trifluoro-7-(3-methyl-1-piperazinyl)-1,4-dihydro-4-oxoquinoline-3-carboxylic acid] | 1.56 (≈ 4.09 µM) | 0.78 (≈ 2.05 µM) | 0.2 (≈ 0.524 µM) | 0.2 (≈ 0.524 µM) | 0.39 (≈ 1.02 µM) | low oral toxicity | very high antibacterial activities | 1.56 (≈ 4.09 µM) | 3.13 (≈ 8.21 µM) | 0.2 (≈ 0.524 µM) | 0.1 (≈ 0.262 µM) | 1.56 (≈ 4.09 µM) | 6.25 (≈ 16.4 µM) | > 2000 | 2.46 | 17.3 | therapeutic effect on infections by Gram-positive and Gram-negative bacteria (in words) [3]: potent therapeutic effects; therapeutic effect compared with Compounds A and B (in words) [3]: better therapeutic effects; dose excreted at 24 h (in vivo [4]; feces, iv, read-out: Feces recovery): 14%; dose excreted at 24 h (in vivo [4]; feces, po, read-out: Feces recovery): 22.3%; absorbability (in words) (in vivo [4]; in vivo): very good oral absorbability; metabolic stability (in words) (in vivo [4]; in vivo): good metabolic stability; total recovery (in words) (in vivo [4]; in vivo): High total recovery; urinary excretion (in words) (in vivo [4]; in vivo): very good; metabolic stability and oral absorbability compared with Compound B (in words) (in vivo [4]; in vivo, po): superior to Compound B in metabolic stability and oral absorbability; dose excreted at 24 h (in vivo [4]; urine and feces, iv, read-out: Total recovery): 77.6%; dose excreted at 24 h (in vivo [4]; urine and feces, po, read-out: Total recovery): 85.7%; dose excreted at 24 h (in vivo [4]; urine, iv, read-out: Urine recovery): 63.6%; dose excreted at 24 h (in vivo [4]; urine, po, read-out: Urine recovery): 63.4%; efficacy against systemic infection by P. aeruginosa 12 compared with Compound A (in words) [5]: better efficacy; ED50 ([7]; 14 days): 2.4 mg/kg; efficacy against systemic infection by S. aureus 50774 compared with Compound B (in words) ([7]; in vivo): better efficacy
5 | CC1(N)CCN(c2c(F)c(N)c3c(=O)c(C(=O)O)cn(C4CC4)c3c2F)C1 (stereo not shown) [Compound 3, 5-amino-7-(3-amino-3-methyl-1-pyrrolidinyl)-1-cyclopropyl-6,8-difluoro-1,4-dihydro-4-oxoquinoline-3-carboxylic acid] | 0.2 (≈ 0.529 µM) | 0.2 (≈ 0.529 µM) | 0.025 (≈ 0.0661 µM) | 0.025 (≈ 0.0661 µM) | 0.1 (≈ 0.264 µM) | low oral toxicity | very high antibacterial activities | 0.1 (≈ 0.264 µM) | 0.39 (≈ 1.03 µM) | 0.0063 (≈ 0.0166 µM) | 0.05 (≈ 0.132 µM) | 0.1 (≈ 0.264 µM) | 0.78 (≈ 2.06 µM) | > 2000 | 1.68 | 9.14 | therapeutic effect on infections by Gram-positive and Gram-negative bacteria (in words) [3]: potent therapeutic effects; therapeutic effect compared with Compounds A and B (in words) [3]: better therapeutic effects; efficacy against systemic infection by P. aeruginosa 12 compared with Compound A (in words) [5]: better efficacy
6 | CCC1(N)CCN(c2c(F)c(N)c3c(=O)c(C(=O)O)cn(C4CC4)c3c2F)C1 (stereo not shown) [Compound 4, 5-amino-7-(3-amino-3-ethyl-1-pyrrolidinyl)-1-cyclopropyl-6,8-difluoro-1,4-dihydro-4-oxoquinoline-3-carboxylic acid] | 0.2 (≈ 0.51 µM) | 0.2 (≈ 0.51 µM) | 0.025 (≈ 0.0637 µM) | 0.025 (≈ 0.0637 µM) | 0.05 (≈ 0.127 µM) | low oral toxicity | very high antibacterial activities | 0.2 (≈ 0.51 µM) | 0.39 (≈ 0.994 µM) | 0.0063 (≈ 0.0161 µM) | 0.05 (≈ 0.127 µM) | 0.1 (≈ 0.255 µM) | 0.78 (≈ 1.99 µM) | > 2000 | – | – | –
7 | CCn1cc(C(=O)O)c(=O)c2c(N)c(F)c(N3CCNCC3)c(F)c21 [Compound A, 5-amino-1-ethyl-6,8-difluoro-7-(1piperazinyl)-1,4-dihydro-4-oxoquinoline-3-carboxylic acid, reference compound] | 3.13 (≈ 8.88 µM) | 0.78 (≈ 2.21 µM) | 0.2 (≈ 0.568 µM) | 0.2 (≈ 0.568 µM) | 0.78 (≈ 2.21 µM) | – | – | 12.5 (≈ 35.5 µM) | 3.13 (≈ 8.88 µM) | 0.2 (≈ 0.568 µM) | 0.39 (≈ 1.11 µM) | 6.25 (≈ 17.7 µM) | 6.25 (≈ 17.7 µM) | – | 15 | > 25 | –
8 | Cl.O=C(O)c1cn(C2CC2)c2cc(N3CCNCC3)c(F)cc2c1=O [Compound B, 1-cyclopropyl-6-fluoro-7-(1-piperazinyl)-1,4-dihydro-4-oxoquinoline-3carboxylic acid hydrochloride, reference compound] | – | – | 0.1 | – | 0.39 | – | – | – | – | – | – | – | – | – | – | – | MIC (P. aeruginosa 12; Pseudomonas aeruginosa, 12, 20 h, read-out: minimum inhibitory concentrations (MIC)): 0.1 µg/mL; MIC (S. aureus No. 50774; Staphylococcus aureus, NO.50774, 20 h, read-out: minimum inhibitory concentrations (MIC)): 0.1 µg/mL; MIC (S. pyogenes A 65; Streptococcus pyogenes, A65, 20 h, read-out: minimum inhibitory concentrations (MIC)): 0.2 µg/mL; MIC (S. aureus No. 80; Staphylococcus aureus, NO.80, 20 h, read-out: minimum inhibitory concentrations (MIC)): 0.39 µg/mL; MIC (E. coli P-51213; Escherichia coli, P51213, 20 h, read-out: minimum inhibitory concentrations (MIC)): 0.05 µg/mL; MIC (S. pyogenes Cook; Streptococcus pyogenes, 20 h, read-out: minimum inhibitory concentrations (MIC)): 0.2 µg/mL; MIC (M. lacunata P-7102; 20 h, read-out: minimum inhibitory concentrations (MIC)): 6.25 µg/mL; ED50 [7]: 11.7 mg/kg
